Measurements published in patent publication US20160090351A1, “INHIBITORS OF DEUBIQUITINATING PROTEASES” (BRANDEIS UNIVERSITY, priority 2013, published 2016).
“Also recorded” adds a separate entry of the source.

What was measured:
K562 cells = experiment: apoptosis, cell cycle and viability of K562 cells by flow cytometry; assay type: cell-based, human; settings: annexin V-FITC / propidium iodide, 24 hours (TU50 also 8 hours)
Protocol: (§1) K562 cells are from a myelogenous leukemia line that expresses Bcr-Abl kinase. A. K562 cells were treated with TU50 for 24 hours after which time the cells were treated with annexin V-FITC and propidium iodide. Cells were then analyzed by flow cytometry. Cells showing only annexin V-FITC were considered apoptotic whereas cells showing both annexin V-FITC and propidium iodide were considered necrotic. N=2. All points show a significant difference to the vehicle (DMSO) with p<0.05. […] All points show a significant difference to vehicle (DMSO) with p<0.02. C. Same as A, but the incubation period was 8 hours. N>2. All points show a significant difference to DMSO with p<0.02. D, K562 cells were treated with TU50 for 4 hours. Samples were analyzed by SDS-PAGE and immunoblotting with anti-Bcr-Abl antibody. E. Quantitation of blot in D. The signal for tubulin was used to normalize the Bcr-Abl signal. N=3.
(§2) FIG. 40 depicts data showing that diphenyl carbonates induce the degradation of Bcr-Abl kinase. A. K562 cells were treated with C17 for 24 h (1 dose) then analyzed for Bcr-Abl expression by western blot with anti-Abl antibody. B. Quantitation of blots in A normalized to actin. C. K562 cells were treated with C17 for 24 h then the amount of cells in G1 and apoptosis were recorded (N=3). D. K562 were treated with C15 for 4 h then analyzed for Bcr-Abl expression using western blot. E. Quantitation of Bcr-Abl from D normalized to tubulin (N=4). F. Same K562 lysates were separately analyzed for K63-linked ubiquitin. G. Quantitation of blots in F (N=4). Differences between all bars is significant p<0.01). H. K562 cells were treated with C15 for 24 h after which time cells were fixed in ethanol, treated with propodium iodide/RNAse then analyzed by FACS. Viability was calculated using forward and side scatter. I. Same experiment as H but red fluorescence was measured to determine DNA content

20S proteasome = 20S proteasome (Homo sapiens, UniProt P28074); experiment: proteasome activity (purified 20S proteasome; GFP-Ub (G76V) in Cos-1 cells); assay type: biochemical; settings: 20S proteasome 30 minutes, Suc-Leu-Tyr-AMC 100 μM; Cos-1 GFP-Ub (G76V) 8 hours
Protocol: A. Purified 20S proteasome was treated with compound for 30 minutes prior to addition of substrate (Suc-Leu-Tyr-AMC, 100 μM). B. Cos-1 cells expressing with GFP-Ub (G76V) were treated with compound for 8 hours, then the level of GFP was measured by flow cytometry.

Bcr-Abl kinase = experiment: Bcr-Abl levels in K562 cells by immunoblotting; assay type: cell-based, human; settings: TU50 4 hours
Protocol: as §1
FIG. 34 depicts data showing that diphenylcarbonates cause the accumulation of HMW-Ub and reduce the levels of Bcr-Abl in K562 cells. A. K562 cells were treated with diphenyl carbonates (50 μM) for 2 h and then assayed for the accumulation of K48-linked Ub. B. As in A, but Bcr-Abl was measured by immunoblotting with anti-Abl antibodies. C. K562 cells were treated with C17 (50 μM) in the presence and absence of bortezomib (6 μM) for 4 hours and Bcr-Abl was measured by immunblotting with anti-Abl antibodies. D. Quantitation of blot in C. Significance: DMSO relative to C17 and bortezomib p=0.002; DMSO relative to C17, p=0.03. E. K562 cells were treated with C15 for 4 hours then analyzed for SMAD4 monoubiquitination by western blot. F. Quantitation of blots in A. (N=3). See also FIG. 40.
as §2
Transfected cells were harvested 1.5 days post transfection. […] Typically clarified lysate was analyzed.

DUBs = experiment: decomposition of high molecular weight ubiquitinated proteins (HMW-Ub) in lysates of HEK 293T cells expressing HA-Ub; assay type: biochemical, human; settings: HEK 293T HA-Ub lysates, 37° C.
Protocol: FIG. 30 depicts data showing that diphenylcarbonates inhibit the decomposition of high molecular weight ubiquitinated proteins (HMW-Ub). Lysates were prepared from HEK 293T cells expressing HA-ubiquitin. Samples were incubated at 37° C. and reactions were quenched by the addition of reducing Laemmli buffer. HMW-Ub was assessed by SDS-PAGE and immunoblotting with anti-HA antibody. A. Representative immunoblots measuring the decomposition of HMW-Ub in lysates treated with either the DMSO vehicle, G5 (10 μM) or C4 (500 μM). B. Plot of the decomposition of HMW-Ub in lysates treated with DMSO and C4 (500 μM) (N=2; error bars denote range). C. Inhibition of HMW-Ub decomposition by diphenylcarbonates. Lysates were treated with diphenylcarbonates (50 μM). “-” denotes no treatment; D, 1% DMSO vehicle; IU1, an USP14-specific inhibitor; Bort, bortezomib, a proteasome inhibitor. D. Representative decomposition of HMW-Ub after 2 h incubation in the presence of varying concentrations of C4. See also FIG. 36. E. Quantitation of D. The values of EC50 reported in FIG. 29B are the average and S.E.M. of at least 3 independent experiments. See also FIG. 37 and FIG. 38.
Cells overexpressing HA-ubiquitin were prepared as above. Pellets were typically stored at −80° C. until required, at which time they were thawed on ice. Cell lysis was performed in lysis buffer using a Dounce homogenizer (10 strokes, with grinding, on ice: typical yield approx. 2-5 mg protein per transfected T75 flask for HEK 293T cells; 1-3 mg protein from a T75 flask for Cos-1). Crude lysate was centrifuged at 17000 g for 10 min at 4° C., after which time the concentration of the lysate was normalized to 1 mg/mL. The lysate was aliquoted into PCR strip tubes (typical volumes 75-50 μL) and compound in DMSO was added to this to give a final concentration of DMSO of 1%. Tubes were briefly centrifuged, overlaid with Chill-out wax (50 μL) and placed in a PCR machine at 37° C. with heated lid set to 37° C. Aliquots (9 μL) were removed at the stated times and immediately quenched in (2× final concentration) reducing (dithiothreitol) loading buffer and frozen (−19° C.) till required. Western blot analysis was carried out using standard methods. Samples were resolved by SDS-PAGE, transferred to PVDF [(0.45 μm) (Towbin buffer, tank apparatus, 90 V 1 hour, then overnight at 30 V, 4° C.)] then blocked in 15% milk in TBS-T HS (100 mM Tris HCl, pH 7.6, 500 mM NaCl, 0.5% […]) for at least 2 hours at RT. Afterward, membrane was washed in TBS-T HS then probed with anti HA-HRP (1:18000) for 1.33 hours at RT. Membrane was washed 3 times in TBS-T HS (15 mins) then once in TBS (15 mins) and exposed to ECL II and visualized using blue biofilm. […] When required, membranes were stripped in 100 mM glycine pH 4, 500 mM NaCl, 1% SDS, 5 mM BME, at 55° C. for 19 mins, then analyzed.
Lysates were prepared from HEK 293T cells expressing N-terminally HA-tagged ubiquitin (HA-Ub) to facilitate the observation of ubiquitinated proteins. In the absence of a DUB inhibitor, the HMW-Ub pool decomposed with a half-life of 34 min (FIG. 30A,B). […] Similar results were obtained in lysates prepared from Cos-1 cells expressing HA-Ub.

[1] = system: ubiquitin-proteasome system; experiment: GFP-G76V-Ub assay in HEK 293T cells; assay type: cell-based, human; settings: diphenyl carbonates 100 μM, bortezomib 20 μM, G5 2 μM
Protocol: FIG. 32 depicts data showing that diphenyl carbonates inhibit DUBs in HEK 293T cells. A. Viability of HEK 293T cells assessed by the propidium iodide exclusion method: diphenyl carbonate (100 μM), bortezomib (V, 20 μM) and G5 (2 μM). N≧3, mean+/−s.d. B. HEK 293T cells were treated with the stated compounds (50 μM) for 2 h and then assayed for the accumulation of K48-linked Ub species. C. As in A, but K63-linked Ub was assayed. D. HEK 293T cells were treated with C14, C15, C17, C18 (100 μM) or DMSO for 2 hours, then harvested, lysed and treated with HA-Ub-VS. After 30 min, lysates were analyzed by SDS-PAGE and probed for HA, tubulin and actin. An intervening lane was removed for clarity. E. HEK 293T cells expressing Ub-G76V-GFP were treated with diphenyl carbonates (100 μM), bortezomib (20 μM) and G5 (2 μM). […] N>3, Mean+/−s.d. See also FIG. 39.
FACS was carried out on a […] FACS-Calibur. For HEK 293T and K562, cells were resuspended by repeated pipetting/agitation of the incubation media, followed by dilution into PBS. For Cos-1, MCF-7, and CHO cells, media was removed and trypsin was added. Harvested cells were placed in FACS buffer (0.5% FBS in PBS with 3 μg/mL propidium iodide) 30 s prior to analysis. All data were analyzed using FlowJo V10, from TreeStar (Ashland, Oreg.). Approximately 2500 cells were sorted per replicate. Cells were sorted by propidium iodide dye exclusion to give a “viable population”. GFP positive cells within this group were identified relative to untransfected controls. Then the geometric mean of the whole GFP positive population within the viable population was calculated. Typical transfection efficiencies for G76V ubiquitin were 60-70% for both Cos-1 and HEK 293T and 25-40% for CHO cells, based on GFP positive cells.
The activity of the diphenylcarbonates in the GFP-G76V-Ub assay, which monitors flux through the ubiquitin-proteasome system, was also investigated. The G76V mutation creates an unstable Ub fusion protein that is degraded in a proteasome dependent process. GFP fluorescence increased when HEK 293T cells expressing GFP-G76V-Ub were treated with the proteasome inhibitor bortezomib and decreased upon treatment with G5 (FIG. 39). This decrease has been attributed to increased flux through the ubiquitin-proteasome system triggered by the accumulation of HMW-Ub. […] Perhaps the inability of the diphenylcarbonates to inhibit UCH-L1/3 accounts for the stability of GFP-G76V-Ub. This selectivity might also explain the low cytoxicity of these compounds relative to G5.

[2] = system: G76V ubiquitin-GFP fusion protein; experiment: G76V ubiquitin-GFP fusion protein fluorescence, Example 5; assay type: cell-based; settings: Example 5, FIG. 9 bottom panel
Protocol: Cells treated with 4 (100 μM; as defined in FIG. 3) show PARP cleavage that indicates caspases are active. The fluorescence of G76V ubiquitin-GFP fusion protein increases in the presence of inhibitor 4 (as defined in FIG. 3), as expected if degradation […] due to inhibition of DUBs. In contrast, GFP fluorescence […] when the proteasome is inhibited by bortezomib.

USP9x = biological target: T1, USP9x (Homo sapiens, UniProt Q93008); experiment: HA-Ub-VS labeling in K562 cell lysates; assay type: biochemical; settings: compound 40 minutes, then HA-Ub-VS (1.5 μM) 20 minutes
T1 construct: endogenous in cells; host or cells: K562 cell lysate
Protocol: HA-Ub-VS is commonly used to label DUBs in cell lysates. […] A. and B. K562 cell lysates were treated with compound for 40 minutes prior to activity labeling with HA-Ub-VS (1.5 μM) for 20 minutes. Samples were analyzed by SDS-PAGE and immunoblotting with anti-HA antibody. C. […] Values were derived by fitting to the in Prism.

B16/F10 cells = experiment: proliferation and cell cycle of B16/F10 cells; assay type: cell-based, mouse; settings: 72 h, flow cytometry
Protocol: A. MCF7 cells were treated with C17 for 4 h and Mdm2 levels were measured. B. As in A, P53 measured. C. As in A, P21 measured. D. MCF7 and B16/F10 cells were treated with C17 every 24 hours. After 72 hours, the number of viable cells was measured by Alamar Blue®.
MCF7 cells were dosed every 2 hours with the indicated concentration of C15. After 6 hours, cells were lysed by freeze thaw and then sonicated in 0.5% SDS. A. Total lysates were blotted for K48-linked ubiquitin and actin. B. Normalized K48-linked ubiquitin signal was plotted as a function of concentration of C15 (N=2). C. […] Doxorubicin (Dox) is a DNA damaging agent that serves as a positive control for the induction of P53. D. Quantitation of P53 levels in C relative to actin (N=2). […] MCF7 cells were treated under the stated conditions then analyzed for cell cycle. F. DMSO treated cells. G. Cells treated with C17 (25 μM), dosed every 24 hours. H. Cells treated with C17 (50 μM), dosed every 24 hours. […] These cells were left for 72 h (single dose) after which time the total number of viable cells was analyzed using Alamar Blue®. All data are n≧4 showing mean+/−s.e.m. K. MCF7 cells were plated with C17 for 24 hours after which time the total number of viable cells was measured by Alamar Blue®. L. B16/F10 cells were treated with DMSO, C17 or P005091 for 72 h. […] After this time, cells were analyzed by flow cytometry.
All cells were grown at 37° C. in a 5% CO2 humidified atmosphere in DMEM supplemented with 10% heat inactivated FBS, 1× glutamax, and 1× penicillin/streptomycin. […] Typically clarified lysate was analyzed. […] Lysates were centrifuged (20 000 rpm, microcentrifuge, Eppendorf 5417 C) concentration was measured, then 0.1% SDS was added and lysates were sonicated for a total of 30 s (in 10 s bursts). Protein concentration was determined using Bradford assay with IgG as standard and analyzed by western blot as delineated below {[9 μg total protein for K48-linked ubiquitin (1:9000 antibody dilution), SMAD4 (1:500) or PARP (1:1000)]; [30-40 μg was loaded for K63-linked ubiquitin (1:1500), Mdm2 (1:1000) or Abl (1:1500). […]

cathepsin C = cathepsin C (Homo sapiens, UniProt P53634); experiment: cathepsin C inhibition; assay type: biochemical; settings: compounds numbered as in FIG. 5
desumoylation = experiment: stabilization of SUMOylated proteins in lysates from HA-SUMO transfected HEK 293T cells; assay type: biochemical, human; settings: G5 5 μM, C4 300 μM
Protocol: Untransfected HEK 293T cell lysates were treated with the vehicle alone (DMSO at 1%) or compound and incubated at 37° C. for 2 h. Samples were analyzed by SDS-PAGE and immunoblotting with antibody recognizing K48-linked ubiquitin. D=DMSO; G5=G5 isopeptidase inhibitor 1. A-D show titrations of different compounds (see FIG. 29B for structures). E-H Lysates were prepared from HEK 293T cells expressing HA-SUMO and treated with vehicle alone (DMSO, 1%) or compound. Samples were incubated for the appropriate time and analyzed by SDS-PAGE and immunoblotting with anti-HA antibody. Representative experiments are shown. E. Vehicle control. F. G5, 5 μM; G. C4, 300 μM. H. Quantification of blots as in E-G, N=2 average and range. I-J. Lysates were prepared from HEK 293T cells expressing HA-Ub and treated with either vehicle alone (1% DMSO) or compound at 37° C. for 3 h. Samples were analyzed by SDS-PAGE and immunoblotting with anti-HA antibody. I. A representative experiment. J. Quantitation of experiments in I (N=2 average and range shown). […]
Similar effects were observed when the endogenous K48-linked ubiquitin pool was monitored in lysates prepared from wild-type HEK 293T cells (FIG. 37A-D). Unfortunately, K63-linked ubiquitin could not be detected in these lysates. The ability of C4 to stabilize SUMOylated proteins in lysates from HA-SUMO transfected HEK 293T cells was also assessed.

T1 sequence (Q93008 whole entry): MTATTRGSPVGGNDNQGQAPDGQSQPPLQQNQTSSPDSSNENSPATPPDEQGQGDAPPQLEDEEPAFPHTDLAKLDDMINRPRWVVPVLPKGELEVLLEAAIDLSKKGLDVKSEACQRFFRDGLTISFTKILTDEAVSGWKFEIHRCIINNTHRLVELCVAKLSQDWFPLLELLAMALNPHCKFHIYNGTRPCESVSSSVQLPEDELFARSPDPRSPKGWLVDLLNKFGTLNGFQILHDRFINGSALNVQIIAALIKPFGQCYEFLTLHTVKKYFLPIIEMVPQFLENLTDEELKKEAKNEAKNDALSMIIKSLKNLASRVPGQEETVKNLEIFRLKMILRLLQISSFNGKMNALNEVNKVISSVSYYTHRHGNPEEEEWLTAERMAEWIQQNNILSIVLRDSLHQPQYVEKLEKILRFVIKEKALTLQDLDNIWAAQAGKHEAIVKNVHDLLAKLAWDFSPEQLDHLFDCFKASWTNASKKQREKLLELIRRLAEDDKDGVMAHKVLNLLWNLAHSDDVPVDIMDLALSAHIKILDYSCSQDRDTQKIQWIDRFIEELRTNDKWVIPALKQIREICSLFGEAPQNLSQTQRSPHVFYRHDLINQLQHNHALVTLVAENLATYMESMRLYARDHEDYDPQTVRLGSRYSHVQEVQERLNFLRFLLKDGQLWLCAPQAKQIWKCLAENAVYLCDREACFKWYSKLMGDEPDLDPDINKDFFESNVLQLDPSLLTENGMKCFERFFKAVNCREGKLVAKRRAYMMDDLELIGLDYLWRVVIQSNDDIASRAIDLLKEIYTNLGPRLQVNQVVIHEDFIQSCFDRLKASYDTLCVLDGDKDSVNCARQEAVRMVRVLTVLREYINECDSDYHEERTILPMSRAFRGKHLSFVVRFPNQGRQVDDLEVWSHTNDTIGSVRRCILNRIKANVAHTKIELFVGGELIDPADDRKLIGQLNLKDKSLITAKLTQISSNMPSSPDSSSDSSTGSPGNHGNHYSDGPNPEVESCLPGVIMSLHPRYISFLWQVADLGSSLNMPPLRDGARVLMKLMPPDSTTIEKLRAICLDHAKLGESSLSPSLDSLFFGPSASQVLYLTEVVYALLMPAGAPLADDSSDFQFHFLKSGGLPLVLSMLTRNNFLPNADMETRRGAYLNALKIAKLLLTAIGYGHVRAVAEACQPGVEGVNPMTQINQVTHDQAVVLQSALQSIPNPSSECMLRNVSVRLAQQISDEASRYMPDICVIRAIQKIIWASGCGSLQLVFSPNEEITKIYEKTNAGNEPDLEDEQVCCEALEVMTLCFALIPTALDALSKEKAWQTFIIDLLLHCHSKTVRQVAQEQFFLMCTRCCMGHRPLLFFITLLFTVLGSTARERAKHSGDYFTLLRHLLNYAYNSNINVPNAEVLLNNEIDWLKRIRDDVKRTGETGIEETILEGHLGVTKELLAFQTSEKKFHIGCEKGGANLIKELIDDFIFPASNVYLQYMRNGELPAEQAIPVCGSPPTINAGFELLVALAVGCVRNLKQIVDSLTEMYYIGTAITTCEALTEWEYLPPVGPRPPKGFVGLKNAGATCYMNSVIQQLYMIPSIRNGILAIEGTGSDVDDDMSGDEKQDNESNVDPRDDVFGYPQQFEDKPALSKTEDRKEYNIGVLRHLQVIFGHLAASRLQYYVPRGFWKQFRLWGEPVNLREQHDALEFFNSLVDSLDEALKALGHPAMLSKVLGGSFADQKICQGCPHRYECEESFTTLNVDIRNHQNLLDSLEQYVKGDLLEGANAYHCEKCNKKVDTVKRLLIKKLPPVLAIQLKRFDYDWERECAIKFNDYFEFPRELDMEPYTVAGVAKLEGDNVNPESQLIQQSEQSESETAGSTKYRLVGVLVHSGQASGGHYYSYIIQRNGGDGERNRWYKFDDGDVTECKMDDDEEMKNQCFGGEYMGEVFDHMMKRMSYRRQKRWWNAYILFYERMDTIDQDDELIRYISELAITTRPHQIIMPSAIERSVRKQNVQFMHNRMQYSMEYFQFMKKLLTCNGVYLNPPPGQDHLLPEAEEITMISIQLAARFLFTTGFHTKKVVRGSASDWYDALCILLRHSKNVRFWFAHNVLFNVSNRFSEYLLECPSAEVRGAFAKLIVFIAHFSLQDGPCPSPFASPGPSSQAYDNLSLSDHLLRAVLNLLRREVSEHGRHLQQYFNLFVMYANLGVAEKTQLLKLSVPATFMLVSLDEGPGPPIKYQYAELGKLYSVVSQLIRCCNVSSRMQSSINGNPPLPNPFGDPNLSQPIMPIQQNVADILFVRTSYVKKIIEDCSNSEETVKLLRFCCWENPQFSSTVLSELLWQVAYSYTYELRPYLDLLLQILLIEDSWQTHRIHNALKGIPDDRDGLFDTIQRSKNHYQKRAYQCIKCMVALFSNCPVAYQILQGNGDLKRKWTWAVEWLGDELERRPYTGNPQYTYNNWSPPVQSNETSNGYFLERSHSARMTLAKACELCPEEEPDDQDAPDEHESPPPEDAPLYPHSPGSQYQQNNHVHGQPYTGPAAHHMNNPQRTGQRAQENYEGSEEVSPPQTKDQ
Sequence of cathepsin C (P53634 25-463, species assumed): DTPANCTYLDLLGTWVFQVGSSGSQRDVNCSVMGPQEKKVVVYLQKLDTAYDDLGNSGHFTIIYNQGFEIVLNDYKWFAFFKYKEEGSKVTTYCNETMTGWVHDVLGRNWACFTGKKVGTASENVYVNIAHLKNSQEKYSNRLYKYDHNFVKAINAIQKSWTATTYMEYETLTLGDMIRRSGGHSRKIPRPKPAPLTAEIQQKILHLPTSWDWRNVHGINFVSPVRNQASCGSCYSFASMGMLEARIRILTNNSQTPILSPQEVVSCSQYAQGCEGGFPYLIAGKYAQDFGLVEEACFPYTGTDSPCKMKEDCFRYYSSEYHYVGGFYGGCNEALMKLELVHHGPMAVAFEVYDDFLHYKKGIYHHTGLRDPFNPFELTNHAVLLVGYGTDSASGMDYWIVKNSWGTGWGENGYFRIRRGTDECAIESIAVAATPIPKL

## O=C(NCc1ccc(N=C=S)cc1)OCc1ccccc1 [TU49]
K562 cells
  apoptosis of K562 cells: induce apoptosis of K562 cells
20S proteasome
  effect on proteasome activity: no effect on proteasome activity
Bcr-Abl kinase
  Bcr-Abl kinase level: cause degradation of Bcr-Abl kinase

## CC(C)C[C@H](NC(=O)[C@H](Cc1ccccc1)NC(=O)c1cnccn1)B(O)O [bortezomib, reference compound]
DUBs
  stabilization of the HMW-Ub pool: failed to stabilize the HMW-Ub pools
[1]
  GFP fluorescence: Only bortezomib treatment caused an increase in GFP fluorescence; also recorded: increased
[2]
  GFP fluorescence of G76V ubiquitin-GFP: decreases

## CC(C)(C)OC(=O)NCCc1ccc(N=C=S)cc1 [TU46]
20S proteasome
  effect on proteasome activity: no effect on proteasome activity
USP9x
  EC50: 11 ± 4 µM

## CC(=O)c1cc([N+](=O)[O-])c(Sc2cccc(Cl)c2Cl)s1 [Compound P005091, reference compound]
B16/F10 cells
  cell cycle distribution: decrease in cells in G1 phase and an increase in G2

## CC(C)(C)OC(=O)NCc1ccc(OC(=O)Oc2ccccc2)cc1 [compound 14]
Cathepsin C
  inhibition of cathepsin C: inhibits cathepsin C

## NCc1ccc(OC(=O)Oc2ccccc2)cc1 [Compound C4, 4-(aminomethyl)phenyl(phenyl)carbonate]
DUBs
  stabilization of the HMW-Ub pool: prevented decomposition of the HMW-Ub pool
desumoylation
  inhibition of desumoylation: Neither G5 nor C4 inhibited desumoylation
